Data as given in ChEMBL document CHEMBL2203208, “Synthesis and structure-activity relationships of dual PI3K/mTOR inhibitors based on a 4-amino-6-methyl-1,3,5-triazine sulfonamide scaffold” (Bioorg Med Chem Lett, 2012).
In brackets after ≈: the same amount, converted by molar mass.

Tests used:
[1] = biological target: Phosphatidylinositol 4,5-bisphosphate 3-kinase catalytic subunit alpha isoform (Homo sapiens, UniProt P42336)
Description: Inhibition of human N-terminal polyHis-tagged PI3K p110alpha expressed in baculovirus infected Hi5 cells using Phosphatidylinositol-4,5-bisphosphate as substrate after 20 mins by AlphaScreen assay

physchem [2] = conditions: phosphate buffered saline
Description: Equilibrium solubility of the compound in phosphate buffered saline after 48 to 72 hrs

physchem [3] = conditions: 0.01N HCl
Description: Equilibrium solubility of the compound in 0.01N HCl after 48 to 72 hrs

physchem [4] = conditions: simulated intestinal fluid
Description: Equilibrium solubility of the compound in simulated intestinal fluid after 48 to 72 hrs

in vitro [5] = conditions: rat, liver microsomes
Description: Clearance in rat liver microsomes at 1 uM after 30 mins in presence of NADPH

[6] = biological target: Phosphatidylinositol 3-kinase catalytic subunit type 3 (Homo sapiens, UniProt Q8NEB9); test: Inhibition of human VPS34 using phosphatidylinositol/phosphatidylserine as substrate after 30 mins by fluorescence-based immunoassay
Sequence of Phosphatidylinositol 3-kinase catalytic subunit type 3 (Q8NEB9 whole entry): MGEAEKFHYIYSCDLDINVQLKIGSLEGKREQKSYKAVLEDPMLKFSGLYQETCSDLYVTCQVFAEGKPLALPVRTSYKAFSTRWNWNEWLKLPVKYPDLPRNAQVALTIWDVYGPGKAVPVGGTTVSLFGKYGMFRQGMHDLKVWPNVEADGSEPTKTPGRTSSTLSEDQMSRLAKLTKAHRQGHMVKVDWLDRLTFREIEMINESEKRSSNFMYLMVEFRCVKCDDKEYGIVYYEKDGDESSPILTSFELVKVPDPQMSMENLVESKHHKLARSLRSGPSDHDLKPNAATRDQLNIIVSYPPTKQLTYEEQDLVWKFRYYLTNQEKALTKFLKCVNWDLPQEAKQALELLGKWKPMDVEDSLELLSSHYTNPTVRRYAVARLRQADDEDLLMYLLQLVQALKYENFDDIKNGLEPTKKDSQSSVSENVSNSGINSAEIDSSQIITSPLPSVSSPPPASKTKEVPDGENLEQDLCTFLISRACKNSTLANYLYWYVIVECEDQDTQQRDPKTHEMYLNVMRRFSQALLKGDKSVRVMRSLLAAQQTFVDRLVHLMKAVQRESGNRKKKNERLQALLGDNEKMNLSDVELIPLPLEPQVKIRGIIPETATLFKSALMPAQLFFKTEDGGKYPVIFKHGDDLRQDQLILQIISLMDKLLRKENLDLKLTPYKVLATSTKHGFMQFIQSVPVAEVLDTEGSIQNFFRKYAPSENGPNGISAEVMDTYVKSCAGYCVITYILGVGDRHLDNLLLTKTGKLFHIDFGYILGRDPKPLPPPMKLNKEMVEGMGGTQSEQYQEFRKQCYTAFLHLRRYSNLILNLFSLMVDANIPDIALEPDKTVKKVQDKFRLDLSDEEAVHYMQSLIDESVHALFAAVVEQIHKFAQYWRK

in vivo [7] = conditions: Sprague-Dawley, rat, po, 2 mg/kg
[8] = Plasma protein binding in dog; assay type: ADME, cell-free, Canis lupus familiaris; conditions: read-out: PPB (converted)
in vivo [9] = conditions: Sprague-Dawley, rat, plasma, po, 2 mg/kg
rodent MDR1 = test: Permeability across pig LLC-PK1 cells expressing rodent MDR1; assay type: ADME, cell-based, Sus scrofa; conditions: read-out: permeability
[10] = biological target: Phosphatidylinositol 4,5-bisphosphate 3-kinase catalytic subunit beta isoform (Homo sapiens, UniProt P42338)
Sequence of Phosphatidylinositol 4,5-bisphosphate 3-kinase catalytic subunit beta isoform (P42338 whole entry, canonical isoform): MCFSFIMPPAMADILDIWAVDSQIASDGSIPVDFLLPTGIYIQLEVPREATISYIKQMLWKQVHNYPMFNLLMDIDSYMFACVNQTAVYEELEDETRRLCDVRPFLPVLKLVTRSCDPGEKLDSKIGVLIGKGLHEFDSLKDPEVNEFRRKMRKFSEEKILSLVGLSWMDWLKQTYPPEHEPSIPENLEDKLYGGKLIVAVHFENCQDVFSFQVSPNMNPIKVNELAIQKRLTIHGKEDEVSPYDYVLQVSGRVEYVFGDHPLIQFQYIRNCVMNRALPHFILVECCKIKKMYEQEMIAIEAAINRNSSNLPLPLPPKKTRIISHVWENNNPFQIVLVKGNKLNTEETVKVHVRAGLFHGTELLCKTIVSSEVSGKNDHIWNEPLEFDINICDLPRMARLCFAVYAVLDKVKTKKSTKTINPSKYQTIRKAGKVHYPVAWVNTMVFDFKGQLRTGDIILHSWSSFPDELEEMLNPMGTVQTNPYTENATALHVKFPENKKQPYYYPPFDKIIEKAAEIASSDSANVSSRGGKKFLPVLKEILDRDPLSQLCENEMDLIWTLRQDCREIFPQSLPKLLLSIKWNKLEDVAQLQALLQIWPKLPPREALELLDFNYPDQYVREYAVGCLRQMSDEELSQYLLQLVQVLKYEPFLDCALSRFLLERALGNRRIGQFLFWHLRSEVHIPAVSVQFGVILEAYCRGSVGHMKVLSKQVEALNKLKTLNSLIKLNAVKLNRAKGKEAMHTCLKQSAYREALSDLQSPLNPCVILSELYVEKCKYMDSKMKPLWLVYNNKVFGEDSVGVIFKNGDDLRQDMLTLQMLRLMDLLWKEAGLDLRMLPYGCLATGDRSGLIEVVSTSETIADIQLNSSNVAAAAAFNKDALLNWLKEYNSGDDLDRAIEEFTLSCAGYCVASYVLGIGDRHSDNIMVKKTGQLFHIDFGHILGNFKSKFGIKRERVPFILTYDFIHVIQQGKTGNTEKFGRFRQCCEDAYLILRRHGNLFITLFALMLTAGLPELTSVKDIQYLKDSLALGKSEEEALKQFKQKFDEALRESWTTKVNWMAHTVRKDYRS
Description: Inhibition of human N-terminal polyHis-tagged PI3K p110beta expressed in baculovirus infected Hi5 cells using Phosphatidylinositol-4,5-bisphosphate as substrate after 20 mins by AlphaScreen assay

Mus musculus [11] = species: Mus musculus; conditions: CD1, U-87MG ATCC
Description: Inhibition of PI3K-mediated AKT Ser473 phosphorylation in human U87MG cells xenografted in po dosed CD1 nu/nu mouse after 6 hrs

[12] = Plasma protein binding in rat; assay type: ADME, cell-free; conditions: read-out: PPB (converted)
in vivo [13] = conditions: Sprague-Dawley, rat, iv, 1 mg/kg
in vitro [14] = conditions: human, liver microsomes
Description: Clearance in human liver microsomes at 1 uM after 30 mins in presence of NADPH

[15] = biological target: Phosphatidylinositol 4,5-bisphosphate 3-kinase catalytic subunit gamma isoform (Homo sapiens, UniProt P48736); set-up: species or system BTI-TN-5B1-4
Sequence of Phosphatidylinositol 4,5-bisphosphate 3-kinase catalytic subunit gamma isoform (P48736 whole entry, canonical isoform): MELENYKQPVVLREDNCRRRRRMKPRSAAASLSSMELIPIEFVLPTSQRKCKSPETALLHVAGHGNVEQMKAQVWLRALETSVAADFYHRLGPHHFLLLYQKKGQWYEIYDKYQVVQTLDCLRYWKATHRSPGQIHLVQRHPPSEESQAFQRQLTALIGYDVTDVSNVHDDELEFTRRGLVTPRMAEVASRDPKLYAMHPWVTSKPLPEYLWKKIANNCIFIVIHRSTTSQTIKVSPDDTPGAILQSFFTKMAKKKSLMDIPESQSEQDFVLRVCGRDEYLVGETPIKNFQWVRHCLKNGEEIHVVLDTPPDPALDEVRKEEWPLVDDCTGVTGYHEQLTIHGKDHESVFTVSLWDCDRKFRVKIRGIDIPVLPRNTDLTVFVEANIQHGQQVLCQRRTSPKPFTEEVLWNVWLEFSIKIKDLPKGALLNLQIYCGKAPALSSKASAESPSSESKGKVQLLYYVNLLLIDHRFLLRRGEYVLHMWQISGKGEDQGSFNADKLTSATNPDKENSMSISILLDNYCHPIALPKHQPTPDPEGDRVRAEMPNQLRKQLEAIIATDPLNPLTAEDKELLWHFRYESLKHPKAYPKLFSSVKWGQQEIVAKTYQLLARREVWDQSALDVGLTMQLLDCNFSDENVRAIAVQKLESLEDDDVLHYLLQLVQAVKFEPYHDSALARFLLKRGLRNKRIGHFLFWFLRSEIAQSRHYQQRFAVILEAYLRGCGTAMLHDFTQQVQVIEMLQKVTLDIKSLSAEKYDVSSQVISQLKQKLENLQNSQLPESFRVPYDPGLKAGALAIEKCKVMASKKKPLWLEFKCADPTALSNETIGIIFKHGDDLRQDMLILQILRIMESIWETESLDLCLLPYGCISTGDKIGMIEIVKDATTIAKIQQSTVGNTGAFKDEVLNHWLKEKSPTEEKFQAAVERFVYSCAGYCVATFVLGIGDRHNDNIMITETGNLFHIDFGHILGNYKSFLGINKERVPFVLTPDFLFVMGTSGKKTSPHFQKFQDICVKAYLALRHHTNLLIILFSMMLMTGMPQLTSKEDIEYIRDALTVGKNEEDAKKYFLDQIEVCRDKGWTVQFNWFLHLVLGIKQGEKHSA

[16] = biological target: T1, Phosphatidylinositol 4,5-bisphosphate 3-kinase catalytic subunit delta isoform (Homo sapiens, UniProt O00329)
T1 sequence (O00329 whole entry): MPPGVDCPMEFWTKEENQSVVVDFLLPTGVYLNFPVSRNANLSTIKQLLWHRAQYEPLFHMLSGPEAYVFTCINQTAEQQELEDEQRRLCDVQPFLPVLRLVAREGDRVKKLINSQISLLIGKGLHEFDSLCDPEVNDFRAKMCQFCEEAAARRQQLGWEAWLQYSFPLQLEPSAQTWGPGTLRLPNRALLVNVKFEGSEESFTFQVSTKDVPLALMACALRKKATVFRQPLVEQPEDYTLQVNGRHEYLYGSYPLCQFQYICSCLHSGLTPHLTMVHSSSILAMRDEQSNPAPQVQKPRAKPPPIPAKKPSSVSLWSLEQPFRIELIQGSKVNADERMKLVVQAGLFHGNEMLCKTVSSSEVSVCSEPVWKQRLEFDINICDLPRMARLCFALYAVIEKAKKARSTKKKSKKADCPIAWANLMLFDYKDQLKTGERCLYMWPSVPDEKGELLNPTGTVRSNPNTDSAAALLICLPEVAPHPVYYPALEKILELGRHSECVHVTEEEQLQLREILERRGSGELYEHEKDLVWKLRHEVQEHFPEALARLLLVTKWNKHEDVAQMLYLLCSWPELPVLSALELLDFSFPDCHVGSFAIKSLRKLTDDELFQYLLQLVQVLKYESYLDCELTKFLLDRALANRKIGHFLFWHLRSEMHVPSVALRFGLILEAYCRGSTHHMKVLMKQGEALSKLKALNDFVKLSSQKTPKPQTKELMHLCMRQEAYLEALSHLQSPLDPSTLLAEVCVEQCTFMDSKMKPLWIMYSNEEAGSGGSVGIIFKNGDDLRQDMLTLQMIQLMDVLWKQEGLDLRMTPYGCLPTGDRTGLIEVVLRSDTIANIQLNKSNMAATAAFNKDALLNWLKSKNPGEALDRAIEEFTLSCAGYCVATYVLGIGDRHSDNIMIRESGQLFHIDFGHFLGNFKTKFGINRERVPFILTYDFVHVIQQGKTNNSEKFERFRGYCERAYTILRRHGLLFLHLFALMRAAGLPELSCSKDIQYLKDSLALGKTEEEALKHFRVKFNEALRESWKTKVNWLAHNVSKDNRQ
Description: Inhibition of human N-terminal polyHis-tagged PI3K p110delta expressed in baculovirus infected Hi5 cells using Phosphatidylinositol-4,5-bisphosphate as substrate after 20 mins by AlphaScreen assay

in vivo [17] = conditions: Sprague-Dawley, rat, iv, 1 mg/kg; remark: listed apart in the source
Description: (§1) Clearance in Sprague-Dawley rat at 1 mg/kg, iv

[18] = biological target: Voltage-gated inwardly rectifying potassium channel KCNH2 (Homo sapiens, UniProt Q12809); test: Inhibition of human ERG
[19] = Plasma protein binding in mouse; assay type: ADME, cell-free; conditions: read-out: PPB (converted)
Mus musculus [20] = test: Inhibition of PI3K in human U87MG cells xenografted in po dosed CD1 nu/nu mouse assessed as plasma concentration required for inhibition of AKT ser473 phosphorylation after 6 hrs; assay type: functional, organism-based, U-87MG ATCC; conditions: CD1, U-87 MG
[21] = Plasma protein binding in human; assay type: ADME, cell-free; conditions: read-out: PPB (converted)
human MDR1 = test: Permeability across pig LLC-PK1 cells expressing human MDR1; assay type: ADME, cell-based, Sus scrofa; conditions: read-out: permeability
in vivo [22] = conditions: Sprague-Dawley, rat, iv, 1 mg/kg; remark: listed apart in the source
Description: (§2) Mean residence time in Sprague-Dawley rat at 1 mg/kg, iv

[23] = biological target: Serine/threonine-protein kinase mTOR (Homo sapiens, UniProt P42345)
Description: Inhibition of recombinant N-terminal GST-tagged mTOR using GFP-4EBP as substrate after 90 mins by TR-FRET assay

Rattus norvegicus [24] = species: Rattus norvegicus; conditions: in vivo, po, 2 mg/kg
Rattus norvegicus [25] = species: Rattus norvegicus; conditions: in vivo, po, 2 mg/kg; remark: listed apart in the source
Rattus norvegicus [26] = species: Rattus norvegicus; conditions: in vivo, iv, 1 mg/kg
Description: as §1

Rattus norvegicus [27] = species: Rattus norvegicus; conditions: in vivo, iv, 1 mg/kg; remark: listed apart in the source
Description: as §2

Rattus norvegicus [28] = species: Rattus norvegicus; conditions: in vivo, iv, 1 mg/kg; remark: listed apart in the source

Sequence of Phosphatidylinositol 4,5-bisphosphate 3-kinase catalytic subunit alpha isoform (P42336 whole entry, canonical isoform): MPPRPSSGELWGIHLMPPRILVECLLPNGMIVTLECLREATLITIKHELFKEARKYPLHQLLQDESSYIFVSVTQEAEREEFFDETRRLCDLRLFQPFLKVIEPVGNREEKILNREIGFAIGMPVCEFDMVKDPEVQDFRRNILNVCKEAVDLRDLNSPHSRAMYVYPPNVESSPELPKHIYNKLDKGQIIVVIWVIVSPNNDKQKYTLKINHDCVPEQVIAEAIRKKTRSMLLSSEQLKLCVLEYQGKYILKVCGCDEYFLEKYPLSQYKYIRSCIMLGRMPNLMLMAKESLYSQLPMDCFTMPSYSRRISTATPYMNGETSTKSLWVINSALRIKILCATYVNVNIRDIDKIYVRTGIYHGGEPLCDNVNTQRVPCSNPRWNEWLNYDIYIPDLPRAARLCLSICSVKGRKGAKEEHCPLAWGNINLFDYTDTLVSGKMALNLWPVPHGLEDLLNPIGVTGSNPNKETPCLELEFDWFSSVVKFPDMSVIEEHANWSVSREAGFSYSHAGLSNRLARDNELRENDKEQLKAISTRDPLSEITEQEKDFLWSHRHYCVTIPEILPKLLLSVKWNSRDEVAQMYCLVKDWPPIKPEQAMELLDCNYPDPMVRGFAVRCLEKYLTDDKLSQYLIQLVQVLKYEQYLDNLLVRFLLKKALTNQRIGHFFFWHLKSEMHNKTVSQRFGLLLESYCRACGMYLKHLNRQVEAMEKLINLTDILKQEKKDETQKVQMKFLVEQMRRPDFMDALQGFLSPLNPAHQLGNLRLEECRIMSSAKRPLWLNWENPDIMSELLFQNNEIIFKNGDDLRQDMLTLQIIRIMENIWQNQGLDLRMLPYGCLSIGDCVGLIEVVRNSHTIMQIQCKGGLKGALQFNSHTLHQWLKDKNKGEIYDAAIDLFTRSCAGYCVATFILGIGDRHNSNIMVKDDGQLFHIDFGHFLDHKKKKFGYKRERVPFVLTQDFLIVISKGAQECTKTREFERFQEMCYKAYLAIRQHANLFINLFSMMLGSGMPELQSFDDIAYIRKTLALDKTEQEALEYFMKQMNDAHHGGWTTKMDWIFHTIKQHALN

SMILES	Ki [1]	solubility thermodynamic (physchem [2])	solubility thermodynamic (physchem [3])	solubility thermodynamic (physchem [4])	also measured
Cc1nc(N)nc(-c2cc(Cl)cnc2Nc2cnc(C)c(NS(C)(=O)=O)c2)n1	161 nM				
Cc1nc(N)nc(-c2cc(Cl)cnc2Nc2cnc(Cl)c(NS(=O)(=O)N3CCOCC3)c2)n1	8.6 nM	1000 µg/mL (≈ 1950 µM)	1000 µg/mL (≈ 1950 µM)	11100 µg/mL (≈ 21700 µM)	
Cc1nc(N)nc(-c2cccnc2Nc2cnc(Cl)c(NS(=O)(=O)N(C)C)c2)n1	11 nM	3600 µg/mL (≈ 8260 µM)	4700 µg/mL (≈ 10800 µM)	1000 µg/mL (≈ 2290 µM)	
Cc1nc(N)nc(-c2cccnc2Nc2cnc(Cl)c(N)c2)n1	360 nM				
Cc1nc(N)nc(-c2cccnc2Nc2cnc(Cl)c(NS(=O)(=O)N3CCOCC3)c2)n1	16 nM				
COc1cnc(Nc2cnc(Cl)c(NS(=O)(=O)N3CCOCC3)c2)c(-c2nc(C)nc(N)n2)c1	13 nM	14 µg/mL (≈ 27.6 µM)	5 µg/mL (≈ 9.84 µM)	1 µg/mL (≈ 1.97 µM)	
Cc1nc(N)nc(-c2cc(Cl)cnc2Nc2cnc(Cl)c(NS(=O)(=O)N(C)C)c2)n1	7.7 nM	2000 µg/mL (≈ 4250 µM)	1000 µg/mL (≈ 2130 µM)	11600 µg/mL (≈ 24700 µM)	microsomal CLint at 0.5 h, 1 µM (in vitro [5]): 27 µL/min/mg; IC50 [6]: 606 nM; bioavailability (in vivo [7]): 63%; fraction unbound [8]: 0.0035; AUC (in vivo [9]): 3360 ng·h/mL; Papp (rodent MDR1): 12.2 ×10⁻⁶ cm/s; Ki [10]: 0.6 nM; inhibition (Mus musculus [11]): Dose-dependent effect; fraction unbound [12]: 0.002; Vd (in vivo [13]): 0.97 L/kg; microsomal CLint at 0.5 h, 1 µM (in vitro [14]): 47 µL/min/mg; Ki [15]: 1 nM; Ki [16]: 0.4 nM; clearance (in vivo [17]): 6.5 mL/min/kg; inhibition (INH) [18]: Not Active; fraction unbound [19]: 0.0287; EC50 (Mus musculus [20]): 0.091 µg/mL (≈ 0.193 µM); fraction unbound [21]: 0.002; Papp (human MDR1): 12.2 ×10⁻⁶ cm/s; MRT (in vivo [22]): 2.5 h
Cc1nc(N)nc(-c2cc(Cl)cnc2Nc2cnc(Cl)c(NS(=O)(=O)c3cccnc3)c2)n1	13 nM				
Cc1nc(N)nc(-c2cc(Cl)cnc2Nc2cnc(Cl)c(N(C)S(C)(=O)=O)c2)n1	311 nM				
Cc1nc(N)nc(-c2cc(CN3CCOCC3)cnc2Nc2cnc(Cl)c(NS(C)(=O)=O)c2)n1	9.7 nM	11 µg/mL (≈ 21.7 µM)	200 µg/mL (≈ 395 µM)	8 µg/mL (≈ 15.8 µM)	
Cc1nc(N)nc(-c2cccnc2Nc2cnc(Cl)c(NS(=O)(=O)N(C)C(C)C)c2)n1	43 nM				
COc1ncc(Nc2ncc(Cl)cc2-c2nc(C)nc(N)n2)cc1NS(C)(=O)=O	114 nM				
COCCOc1cnc(Nc2cnc(Cl)c(NS(C)(=O)=O)c2)c(-c2nc(C)nc(N)n2)c1	18 nM	34 µg/mL (≈ 70.7 µM)	33 µg/mL (≈ 68.6 µM)	43 µg/mL (≈ 89.4 µM)	microsomal CLint at 0.5 h, 1 µM (in vitro [5]): < 14 µL/min/mg; IC50 [23]: 32 nM; bioavailability (in vivo [7]): 28%; AUC (in vivo [9]): 1210 ng·h/mL; Ki [10]: 16 nM; Vd (in vivo [13]): 0.52 L/kg; microsomal CLint at 0.5 h, 1 µM (in vitro [14]): < 14 µL/min/mg; Ki [15]: 14 nM; Ki [16]: 6.1 nM; clearance (in vivo [17]): 7.67 mL/min/kg; MRT (in vivo [22]): 1.1 h
Cc1nc(N)nc(-c2cc(CN3CCOCC3)cnc2Nc2cnc(Cl)c(NS(=O)(=O)N(C)C)c2)n1	1.9 nM	11 µg/mL (≈ 20.6 µM)	200 µg/mL (≈ 374 µM)	16 µg/mL (≈ 29.9 µM)	
COCCN(C)S(=O)(=O)Nc1cc(Nc2ncc(Cl)cc2-c2nc(C)nc(N)n2)cnc1Cl	29 nM	1000 µg/mL (≈ 1940 µM)	3200 µg/mL (≈ 6220 µM)	3200 µg/mL (≈ 6220 µM)	
Cc1nc(N)nc(-c2cccnc2Nc2cnc(Cl)c(NS(=O)(=O)c3ccc(F)cc3)c2)n1	16 nM	2900 µg/mL (≈ 5960 µM)	5800 µg/mL (≈ 11900 µM)	46200 µg/mL (≈ 94900 µM)	
COc1cnc(Nc2cnc(Cl)c(NS(C)(=O)=O)c2)c(-c2nc(C)nc(N)n2)c1	11 nM	1 µg/mL (≈ 2.29 µM)	1 µg/mL (≈ 2.29 µM)	1 µg/mL (≈ 2.29 µM)	microsomal CLint at 0.5 h, 1 µM (in vitro [5]): < 14 µL/min/mg; F (Rattus norvegicus [24]): 1.8%; AUC (Rattus norvegicus [25]): 419 ng·h/mL; Vd (in vivo [13]): 0.28 L/kg; microsomal CLint at 0.5 h, 1 µM (in vitro [14]): < 14 µL/min/mg; CL (Rattus norvegicus [26]): 3.5 mL/min/kg; MRT (in vivo [22]): 1.3 h
Cc1nc(N)nc(-c2cccnc2Nc2cnc(Cl)c(NS(C)(=O)=O)c2)n1	20 nM	2900 µg/mL (≈ 7130 µM)	5800 µg/mL (≈ 14300 µM)	46200 µg/mL (≈ 114000 µM)	microsomal CLint at 0.5 h, 1 µM (in vitro [5]): < 14 µL/min/mg; F (Rattus norvegicus [24]): 33%; IC50 [6]: 1290 nM; IC50 [23]: 198 nM; AUC (Rattus norvegicus [25]): 4238 ng·h/mL; Ki [10]: 4.4 nM; microsomal CLint at 0.5 h, 1 µM (in vitro [14]): < 14 µL/min/mg; Ki [15]: 2.4 nM; MRT (Rattus norvegicus [27]): 4.5 h; Vdss (Rattus norvegicus [28]): 0.4 L/kg; Ki [16]: 1.2 nM; CL (Rattus norvegicus [26]): 6.5 mL/min/kg
Cc1nc(N)nc(-c2cc(Cl)cnc2Nc2cnc(Cl)c(NS(C)(=O)=O)c2)n1	3.5 nM	1000 µg/mL (≈ 2270 µM)	1000 µg/mL (≈ 2270 µM)	1000 µg/mL (≈ 2270 µM)	
Cc1nc(N)nc(-c2cccnc2Nc2cnc(Cl)c(NS(=O)(=O)C3CC3)c2)n1	11 nM	1000 µg/mL (≈ 2310 µM)	1000 µg/mL (≈ 2310 µM)	3600 µg/mL (≈ 8320 µM)	
COc1cnc(Nc2cnc(Cl)c(NS(=O)(=O)N(C)C)c2)c(-c2nc(C)nc(N)n2)c1	9.3 nM	4 µg/mL (≈ 8.59 µM)	3 µg/mL (≈ 6.44 µM)	1 µg/mL (≈ 2.15 µM)	microsomal CLint at 0.5 h, 1 µM (in vitro [5]): 20 µL/min/mg; IC50 [23]: 74 nM; bioavailability (in vivo [7]): 22%; AUC (in vivo [9]): 859 ng·h/mL; Ki [10]: 4.7 nM; Vd (in vivo [13]): 1.01 L/kg; microsomal CLint at 0.5 h, 1 µM (in vitro [14]): 26 µL/min/mg; Ki [15]: 2.2 nM; Ki [16]: 1.1 nM; clearance (in vivo [17]): 8.67 mL/min/kg; MRT (in vivo [22]): 2 h
